The test system of the assay is P388 leukemia ip, CD2F1 mice, survival T/C. The assay can be described thus: NCI In Vivo Anticancer Drug Screen. Data for tumor model P388 Leukemia (intraperitoneal) in CD2F1 (CDF1) mice. The settings on record: endpoint: median survival time, higher = longer survival. The method, boiled down: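 Mice carrying the transplanted tumor received test compound or vehicle. Survival was recorded in each group, and the value is the treated-group measurement divided by that of the vehicle-treated control group.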

[1] abbreviates: dose: 60.0 mg/kg/injection, schedule: Q01DX005 (ip), vehicle: Klucel (hydroxypropylcellulose) (HPC).
Setting [2] is: dose: 120.0 mg/kg/injection, schedule: Q01DX005 (ip), vehicle: Klucel (hydroxypropylcellulose) (HPC).
[3] abbreviates: dose: 240.0 mg/kg/injection, schedule: Q01DX005 (ip), vehicle: Klucel (hydroxypropylcellulose) (HPC).
Setting [4] is: dose: 50.0 mg/kg/injection, schedule: Q01DX009 (ip), vehicle: saline.
[5] abbreviates: dose: 100.0 mg/kg/injection, schedule: Q01DX009 (ip), vehicle: saline.
Setting [6] is: dose: 200.0 mg/kg/injection, schedule: Q01DX009 (ip), vehicle: saline.
Where [7] appears, read: dose: 100.0 mg/kg/injection, schedule: Q01DX009 (ip), vehicle: saline with Tween-80.
Setting [8] is: dose: 100.0 mg/kg/injection, schedule: Q01DX001 (ip), vehicle: saline with Tween-80.
[9] abbreviates: dose: 100.0 mg/kg/injection, schedule: Q01DX005 (ip), vehicle: saline with Tween-80.
[10] abbreviates: dose: 200.0 mg/kg/injection, schedule: Q01DX001 (ip), vehicle: saline with Tween-80.
Setting [11] is: dose: 200.0 mg/kg/injection, schedule: Q01DX005 (ip), vehicle: saline with Tween-80.
Setting [12] is: dose: 50.0 mg/kg/injection, schedule: Q01DX009 (ip), vehicle: saline with Tween-80.
[13] abbreviates: dose: 200.0 mg/kg/injection, schedule: Q01DX009 (ip), vehicle: saline with Tween-80.
[14] abbreviates: dose: 50.0 mg/kg/injection, schedule: Q01DX005 (ip), vehicle: saline with Tween-80.

Molecules are shown by their SMILES. Several values for one entry are separate records, joined by “and”; a condition that tells them apart may be missing. Identical values can stand only once. Toxic doses and inconclusive results are not listed.

These results are taken from PubChem BioAssay AID330 (DTP/NCI, 2004).

For the compound `CC(=O)On1nnc2ccccc2c1=O`, the T/C is 97 % of control (dose: 6.25 mg/kg/injection, schedule: Q01DX009 (ip), vehicle: distilled water + Tween-80); 100 % of control (dose: 12.5 mg/kg/injection, schedule: Q01DX009 (ip), vehicle: distilled water + Tween-80); 97 % of control (dose: 25.0 mg/kg/injection, schedule: Q01DX009 (ip), vehicle: distilled water + Tween-80).
Take `NC12CCC(N)(c3ccccc31)c1ccccc12`: the T/C by setting is: under setting [1], 93 % of control; under setting [2], 98 % of control; under setting [3], 98 % of control.
As for `COCC[P+](c1ccccc1)(c1ccccc1)c1ccccc1`, the T/C (dose: 1.56 mg/kg/injection, schedule: Q01DX009 (ip), vehicle: water) is 103 % of control; the T/C (dose: 3.13 mg/kg/injection, schedule: Q01DX009 (ip), vehicle: water) is 99 % of control and 109 % of control; the T/C (dose: 6.25 mg/kg/injection, schedule: Q01DX009 (ip), vehicle: water) is 112 % of control and 123 % of control; the T/C (dose: 12.5 mg/kg/injection, schedule: Q01DX009 (ip), vehicle: water) was 123 % of control; the T/C (dose: 25.0 mg/kg/injection, schedule: Q01DX009 (ip), vehicle: water) was 105 % of control and 119 % of control; the T/C (dose: 50.0 mg/kg/injection, schedule: Q01DX009 (ip), vehicle: water) is 116 % of control.
For the compound `CC(CCc1ccc2c(c1)c(=N)c1ccc(N)cc1n2O)CC(C)(C)C` (stereo unspecified), the T/C was 102 % of control and 96 % of control (dose: 1.56 mg/kg/injection, schedule: Q04DX002 (ip), vehicle: distilled water + Tween-80); 106 % of control and 94 % of control (dose: 3.12 mg/kg/injection, schedule: Q04DX002 (ip), vehicle: distilled water + Tween-80); 100 % of control and 120 % of control (dose: 6.25 mg/kg/injection, schedule: Q04DX002 (ip), vehicle: distilled water + Tween-80); 102 % of control and 98 % of control (2×) (dose: 12.5 mg/kg/injection, schedule: Q04DX002 (ip), vehicle: distilled water + Tween-80).
With `CCCCCCC[CH2][Sn]([CH2]CCCCCCC)([S]CC(=O)OCCCC)[S]CC(=O)OCCCC`, the T/C runs as follows: under setting [4], 99 % of control; under setting [5], 92 % of control and 95 % of control; under setting [6], 92 % of control and 94 % of control.
As for `NC(=S)N/N=C/c1cn(-c2ccc(N)cc2)cn1`, the T/C (dose: 25.0 mg/kg/injection, schedule: Q04DX003 (ip), vehicle: Klucel (hydroxypropylcellulose) (HPC)) is 100 % of control; the T/C (dose: 50.0 mg/kg/injection, schedule: Q04DX003 (ip), vehicle: Klucel (hydroxypropylcellulose) (HPC)) is 91 % of control; the T/C (dose: 100.0 mg/kg/injection, schedule: Q04DX003 (ip), vehicle: Klucel (hydroxypropylcellulose) (HPC)) was 100 % of control.
Regarding `Cc1ccc2c(c1)=N/C(=N\c1nc(O)c(O)[nH]1)N=2`, the T/C by setting is: (dose: 60.0 mg/kg/injection, schedule: Q01DX009 (ip), vehicle: saline with Tween-80) 106 % of control; under setting [7], 106 % of control; (dose: 140.0 mg/kg/injection, schedule: Q01DX009 (ip), vehicle: saline with Tween-80) 109 % of control; (dose: 210.0 mg/kg/injection, schedule: Q01DX009 (ip), vehicle: saline with Tween-80) 111 % of control.
As to `CC1CCCN2C(=O)CN(N3CCOCC3)CC(=O)N12` (stereo unspecified), the T/C runs as follows: (dose: 25.0 mg/kg/injection, schedule: Q04DX002 (ip), vehicle: saline with Tween-80) 100 % of control; (dose: 25.0 mg/kg/injection, schedule: Q04DX002 (ip), vehicle: saline) 95 % of control; (dose: 50.0 mg/kg/injection, schedule: Q04DX002 (ip), vehicle: saline with Tween-80) 94 % of control; (dose: 50.0 mg/kg/injection, schedule: Q04DX002 (ip), vehicle: saline) 95 % of control; (dose: 100.0 mg/kg/injection, schedule: Q04DX002 (ip), vehicle: saline with Tween-80) 99 % of control; (dose: 100.0 mg/kg/injection, schedule: Q04DX002 (ip), vehicle: saline) 102 % of control. In addition, the T/C runs as follows: (dose: 200.0 mg/kg/injection, schedule: Q04DX002 (ip), vehicle: saline with Tween-80) 94 % of control; (dose: 200.0 mg/kg/injection, schedule: Q04DX002 (ip), vehicle: saline) 94 % of control.
Consider `N#CN=[N+]([O-])c1ccccc1[N+](=O)[O-]`, for which the T/C reads like this: (dose: 6.25 mg/kg/injection, schedule: Q04DX003 (ip), vehicle: Klucel (hydroxypropylcellulose) (HPC)) 110 % of control; (dose: 12.5 mg/kg/injection, schedule: Q04DX003 (ip), vehicle: Klucel (hydroxypropylcellulose) (HPC)) 106 % of control.
Consider `N#Cc1cc(Br)ccc1N`, for which the T/C by setting is: under setting [4], 105 % of control; under setting [5], 107 % of control; under setting [6], 96 % of control.
Take `O=c1nc(Cl)c2ccccc2c2ccccc12`: the T/C by setting is: under setting [8], 96 % of control; under setting [9], 96 % of control; under setting [10], 97 % of control; under setting [11], 97 % of control; (dose: 400.0 mg/kg/injection, schedule: Q01DX001 (ip), vehicle: saline with Tween-80) 87 % of control; (dose: 400.0 mg/kg/injection, schedule: Q01DX005 (ip), vehicle: saline with Tween-80) 87 % of control.
Regarding `O=[N+]([O-])CC(OCCCCO)C(Cl)(Cl)Cl` (stereo unspecified), the T/C reads like this: under setting [12], 101 % of control; under setting [7], 96 % of control; under setting [13], 87 % of control.
Turning to `CCN(CC)CCCNc1cccc2c(SCc3ccccc3)ccnc12`, the T/C is 112 % of control under setting [14] and 102 % of control under setting [9].
Consider `COc1ccc(CC2C(=O)NC(C)C(=O)N(C)C3Cc4ccc(cc4)Oc4cc(ccc4OC)CC(C(=O)NC(C)C(=O)NC(C)C(=O)N2C)N(C)C3=O)cc1` (stereo unspecified), for which the T/C (dose: 0.5 mg/kg/injection, schedule: Q01DX009 (ip), vehicle: none) was 161 % of control; the T/C (dose: 1.0 mg/kg/injection, schedule: Q01DX009 (ip), vehicle: none) was 152 % of control; the T/C (dose: 2.0 mg/kg/injection, schedule: Q01DX009 (ip), vehicle: none) is 190 % of control.
`CC(C)(C)S(=O)(=O)C(C)(C)C`: the T/C (dose: 25.0 mg/kg/injection, schedule: Q01DX001 (ip), vehicle: saline with Tween-80) was 109 % of control; the T/C (dose: 50.0 mg/kg/injection, schedule: Q01DX001 (ip), vehicle: saline with Tween-80) is 111 % of control; the T/C under setting [8] was 95 % of control; the T/C under setting [10] is 100 % of control.
As for `CS(=O)(=O)OCCN(CCOS(C)(=O)=O)c1ccc(/C=N/Nc2ncnc3nc[nH]c23)cc1`, the T/C reads like this: under setting [12], 172 % of control; (dose: 66.0 mg/kg/injection, schedule: Q04DX003 (ip), vehicle: saline with Tween-80) 177 % of control; under setting [7], 181 % of control; (dose: 100.0 mg/kg/injection, schedule: Q04DX003 (ip), vehicle: saline with Tween-80) 177 % of control; (dose: 150.0 mg/kg/injection, schedule: Q04DX003 (ip), vehicle: saline with Tween-80) 195 % of control.
Consider `C[N+]1(C)CCN(Cc2ccc3c(c2)CCc2ccccc2N3)CC1`, for which the T/C runs as follows: (dose: 3.75 mg/kg/injection, schedule: Q01DX005 (ip), vehicle: saline) 104 % of control; (dose: 7.5 mg/kg/injection, schedule: Q01DX005 (ip), vehicle: saline) 96 % of control.
Turning to `COc1cc2cccc(OC)c(=O)c2c(O)c1OC`, the T/C reads like this: (dose: 50.0 mg/kg/injection, schedule: Q01DX005 (ip), vehicle: Klucel (hydroxypropylcellulose) (HPC)) 86 % of control; under setting [14], 99 % of control; (dose: 100.0 mg/kg/injection, schedule: Q01DX005 (ip), vehicle: Klucel (hydroxypropylcellulose) (HPC)) 88 % of control; under setting [9], 95 % of control; (dose: 200.0 mg/kg/injection, schedule: Q01DX005 (ip), vehicle: Klucel (hydroxypropylcellulose) (HPC)) 88 % of control; under setting [11], 91 % of control.
As to `CCOC(=O)C1(C(=O)OCC)N=C(c2ccccc2)C=C1c1ccccc1`, the T/C is 100 % of control under setting [12], 98 % of control under setting [7] and 94 % of control under setting [13].
On to `CN1C(=O)N(C)C2CC(=O)c3c(ccc4c3ncn4C)N2C1=O` (stereo unspecified), for which the T/C is 104 % of control under setting [1], 108 % of control under setting [2] and 114 % of control under setting [3].
